Test results reported in ChEMBL document CHEMBL5465560, “Selectivity Literature for EUbOPEN Chemogenomic Library” (2024).

Columns and labels:
[1] = target: T1, Serine/threonine-protein kinase DCLK2 (Homo sapiens) (UniProt Q8N568); assay: Selectivity interaction (ProQinase) EUB0000171b DCLK2
T1 sequence (whole entry): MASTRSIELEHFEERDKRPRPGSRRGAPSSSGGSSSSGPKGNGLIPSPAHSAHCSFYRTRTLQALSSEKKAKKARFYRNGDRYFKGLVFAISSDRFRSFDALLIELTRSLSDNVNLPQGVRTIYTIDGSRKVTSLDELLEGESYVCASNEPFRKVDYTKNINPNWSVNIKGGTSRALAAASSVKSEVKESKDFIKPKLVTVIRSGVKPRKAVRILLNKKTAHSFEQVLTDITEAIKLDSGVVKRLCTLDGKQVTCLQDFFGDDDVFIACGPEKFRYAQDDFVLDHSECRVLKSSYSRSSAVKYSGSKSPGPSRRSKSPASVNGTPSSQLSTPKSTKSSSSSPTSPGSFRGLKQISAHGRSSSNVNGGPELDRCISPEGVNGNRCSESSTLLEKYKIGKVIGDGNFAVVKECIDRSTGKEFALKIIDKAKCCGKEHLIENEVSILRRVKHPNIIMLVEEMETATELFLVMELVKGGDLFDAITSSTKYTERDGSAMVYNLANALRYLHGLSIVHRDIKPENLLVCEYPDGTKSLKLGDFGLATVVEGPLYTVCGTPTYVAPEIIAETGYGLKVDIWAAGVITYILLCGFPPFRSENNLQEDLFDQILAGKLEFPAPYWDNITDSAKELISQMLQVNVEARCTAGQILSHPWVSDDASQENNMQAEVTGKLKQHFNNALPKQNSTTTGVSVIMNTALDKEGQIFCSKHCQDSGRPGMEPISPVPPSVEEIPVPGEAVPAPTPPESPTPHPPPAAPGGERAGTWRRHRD

[2] = target: Cyclin-Y/Cyclin-dependent kinase 16 (Homo sapiens) (UniProt Q00536+Q8ND76); assay: Selectivity interaction (LanthaScreen Eu Kinase Binding Assay) EUB0001632a CDK16; type: protein-complex assay; settings: at 10 µM
[3] = target: Mitotic checkpoint serine/threonine-protein kinase BUB1 (Homo sapiens, UniProt O43683); assay: Selectivity interaction (KinomeScan (DiscoverX)) EUB0000607a BUB1; settings: at 10 µM
Mitotic checkpoint serine/threonine-protein kinase BUB1, sequence (O43683 whole entry, looked up): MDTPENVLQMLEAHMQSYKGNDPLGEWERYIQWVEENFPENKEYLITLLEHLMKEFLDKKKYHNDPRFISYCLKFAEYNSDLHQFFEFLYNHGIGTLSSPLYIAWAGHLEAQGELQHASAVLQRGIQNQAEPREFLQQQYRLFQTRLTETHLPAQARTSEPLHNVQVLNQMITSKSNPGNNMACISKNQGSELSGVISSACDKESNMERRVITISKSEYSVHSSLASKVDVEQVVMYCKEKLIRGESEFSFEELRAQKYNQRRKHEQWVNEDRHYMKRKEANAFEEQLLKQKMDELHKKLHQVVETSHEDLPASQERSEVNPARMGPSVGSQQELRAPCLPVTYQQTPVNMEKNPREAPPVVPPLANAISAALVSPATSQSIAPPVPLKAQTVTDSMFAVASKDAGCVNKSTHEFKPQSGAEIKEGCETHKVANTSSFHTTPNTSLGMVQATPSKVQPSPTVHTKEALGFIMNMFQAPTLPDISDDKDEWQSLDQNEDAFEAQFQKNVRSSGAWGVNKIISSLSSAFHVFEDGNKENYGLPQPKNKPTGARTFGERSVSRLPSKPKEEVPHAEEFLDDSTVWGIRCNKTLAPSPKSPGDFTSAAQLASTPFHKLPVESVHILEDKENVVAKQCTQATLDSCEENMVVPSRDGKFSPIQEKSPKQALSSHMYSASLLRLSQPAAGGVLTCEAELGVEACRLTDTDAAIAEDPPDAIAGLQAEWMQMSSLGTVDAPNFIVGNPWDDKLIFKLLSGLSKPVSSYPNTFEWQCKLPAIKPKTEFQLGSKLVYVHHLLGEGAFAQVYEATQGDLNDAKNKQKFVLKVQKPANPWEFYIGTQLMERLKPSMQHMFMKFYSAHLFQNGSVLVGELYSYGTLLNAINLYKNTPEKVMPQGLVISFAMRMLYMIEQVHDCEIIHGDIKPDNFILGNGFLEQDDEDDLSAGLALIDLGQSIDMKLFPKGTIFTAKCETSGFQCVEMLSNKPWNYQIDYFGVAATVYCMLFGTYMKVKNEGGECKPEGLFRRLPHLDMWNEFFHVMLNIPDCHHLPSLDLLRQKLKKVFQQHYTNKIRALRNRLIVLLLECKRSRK

[4] = target: Serine/threonine-protein kinase PAK 1 (Homo sapiens) (UniProt Q13153); assay: Selectivity interaction (KinomeScan (DiscoverX)) EUB0001049a PAK1; settings: at 1 µM
Serine/threonine-protein kinase PAK 1 (Homo sapiens), sequence (Q13153 whole entry): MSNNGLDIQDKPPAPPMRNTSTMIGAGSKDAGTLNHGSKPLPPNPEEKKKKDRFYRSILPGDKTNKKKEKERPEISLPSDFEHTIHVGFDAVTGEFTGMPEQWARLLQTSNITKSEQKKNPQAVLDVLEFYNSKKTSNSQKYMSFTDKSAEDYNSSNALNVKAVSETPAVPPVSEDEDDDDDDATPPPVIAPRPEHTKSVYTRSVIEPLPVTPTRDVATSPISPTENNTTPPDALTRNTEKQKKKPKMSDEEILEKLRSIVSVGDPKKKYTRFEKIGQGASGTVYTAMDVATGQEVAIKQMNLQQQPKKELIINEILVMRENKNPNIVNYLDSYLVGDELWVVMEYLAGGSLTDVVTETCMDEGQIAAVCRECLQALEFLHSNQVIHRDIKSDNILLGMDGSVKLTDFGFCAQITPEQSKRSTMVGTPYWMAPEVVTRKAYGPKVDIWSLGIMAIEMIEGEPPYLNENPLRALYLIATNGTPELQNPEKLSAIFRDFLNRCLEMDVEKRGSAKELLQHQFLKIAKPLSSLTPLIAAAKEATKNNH

[5] = target: Dual specificity protein kinase CLK2 (Homo sapiens, UniProt P49760); assay: Selectivity interaction (KinomeScan (DiscoverX)) EUB0000045b CLK2
Dual specificity protein kinase CLK2, sequence (P49760 whole entry, looked up): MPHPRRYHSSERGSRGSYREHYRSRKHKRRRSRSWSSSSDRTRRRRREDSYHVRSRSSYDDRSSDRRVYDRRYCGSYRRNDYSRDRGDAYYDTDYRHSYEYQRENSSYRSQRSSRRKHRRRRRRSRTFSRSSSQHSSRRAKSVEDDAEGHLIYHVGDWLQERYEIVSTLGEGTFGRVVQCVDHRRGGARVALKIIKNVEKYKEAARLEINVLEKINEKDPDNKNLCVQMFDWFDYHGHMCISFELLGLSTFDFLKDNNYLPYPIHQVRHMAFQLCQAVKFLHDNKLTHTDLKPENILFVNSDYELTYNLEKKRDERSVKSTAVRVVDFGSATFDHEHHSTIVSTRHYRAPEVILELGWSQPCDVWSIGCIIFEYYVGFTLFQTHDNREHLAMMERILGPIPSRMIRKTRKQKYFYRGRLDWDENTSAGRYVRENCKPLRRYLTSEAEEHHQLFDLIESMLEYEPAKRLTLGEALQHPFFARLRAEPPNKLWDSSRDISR

[6] = target: Serine/threonine-protein kinase PAK 6 (Homo sapiens) (UniProt Q9NQU5); assay: Selectivity interaction (Ambit KINOMEscan and KiNATiv profiling in Jurkat cells) EUB0000090b PAK6; type: cell-based; settings: at 1 µM
Serine/threonine-protein kinase PAK 6 (Homo sapiens), sequence (Q9NQU5 whole entry, looked up): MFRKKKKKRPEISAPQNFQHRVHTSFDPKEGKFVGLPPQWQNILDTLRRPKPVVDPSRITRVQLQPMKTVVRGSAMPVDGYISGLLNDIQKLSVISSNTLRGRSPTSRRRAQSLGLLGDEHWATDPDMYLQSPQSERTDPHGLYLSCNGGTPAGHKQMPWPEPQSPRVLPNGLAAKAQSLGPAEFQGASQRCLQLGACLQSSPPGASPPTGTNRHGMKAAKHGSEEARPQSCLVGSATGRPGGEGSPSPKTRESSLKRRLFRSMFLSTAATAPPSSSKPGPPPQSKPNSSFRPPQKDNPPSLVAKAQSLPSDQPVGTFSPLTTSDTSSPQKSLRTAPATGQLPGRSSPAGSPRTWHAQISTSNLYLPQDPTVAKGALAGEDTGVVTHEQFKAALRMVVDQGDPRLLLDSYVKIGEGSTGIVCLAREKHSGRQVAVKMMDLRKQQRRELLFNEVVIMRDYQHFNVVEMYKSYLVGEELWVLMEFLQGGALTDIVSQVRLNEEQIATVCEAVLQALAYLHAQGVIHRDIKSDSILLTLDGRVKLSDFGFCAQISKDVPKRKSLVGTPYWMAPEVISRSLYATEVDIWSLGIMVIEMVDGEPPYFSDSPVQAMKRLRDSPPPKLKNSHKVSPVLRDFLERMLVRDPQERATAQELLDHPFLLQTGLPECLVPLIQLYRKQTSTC

[7] = target: T2, Serine/threonine-protein kinase ULK1 (Homo sapiens) (UniProt O75385); assay: Selectivity interaction (KinomeScan (DiscoverX)) EUB0001619a ULK1; settings: at 1 µM
T2 sequence (whole entry): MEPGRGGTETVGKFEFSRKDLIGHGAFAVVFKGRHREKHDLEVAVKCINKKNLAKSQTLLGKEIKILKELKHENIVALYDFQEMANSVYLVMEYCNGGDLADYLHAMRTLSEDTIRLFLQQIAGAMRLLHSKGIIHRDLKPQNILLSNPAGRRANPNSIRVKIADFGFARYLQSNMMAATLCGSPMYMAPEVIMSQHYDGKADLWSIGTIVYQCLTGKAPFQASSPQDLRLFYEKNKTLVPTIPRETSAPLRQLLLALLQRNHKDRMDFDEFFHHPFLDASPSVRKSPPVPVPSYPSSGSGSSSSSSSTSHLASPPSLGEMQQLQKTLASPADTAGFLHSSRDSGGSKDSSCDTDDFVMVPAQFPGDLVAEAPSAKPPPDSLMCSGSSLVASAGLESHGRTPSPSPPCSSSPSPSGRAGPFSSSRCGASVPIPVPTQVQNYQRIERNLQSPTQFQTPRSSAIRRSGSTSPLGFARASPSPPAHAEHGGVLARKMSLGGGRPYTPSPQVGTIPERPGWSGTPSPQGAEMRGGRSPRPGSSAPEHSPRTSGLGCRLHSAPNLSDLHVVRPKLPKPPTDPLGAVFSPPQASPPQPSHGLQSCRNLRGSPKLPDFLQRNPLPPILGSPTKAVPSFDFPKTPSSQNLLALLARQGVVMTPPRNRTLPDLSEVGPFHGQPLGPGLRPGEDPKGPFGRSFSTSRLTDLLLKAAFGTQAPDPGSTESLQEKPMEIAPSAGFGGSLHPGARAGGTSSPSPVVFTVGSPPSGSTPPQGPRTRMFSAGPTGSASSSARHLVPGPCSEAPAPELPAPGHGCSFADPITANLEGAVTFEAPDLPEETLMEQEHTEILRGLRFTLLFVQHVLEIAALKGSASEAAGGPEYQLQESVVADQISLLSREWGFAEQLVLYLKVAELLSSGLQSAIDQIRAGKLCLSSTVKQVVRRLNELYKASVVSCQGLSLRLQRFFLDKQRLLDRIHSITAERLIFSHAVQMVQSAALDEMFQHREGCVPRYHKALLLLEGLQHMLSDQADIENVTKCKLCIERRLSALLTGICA

[8] = target: Ribosomal protein S6 kinase alpha-3 (Homo sapiens, UniProt P51812); assay: Selectivity interaction (ActivX KiNativ screen (ex vivo kinase selectivity in human PBMCs)) EUB0001619a RPS6KA3; type: cell-based; settings: PBMC, at 1 µM
Ribosomal protein S6 kinase alpha-3, sequence (P51812 whole entry): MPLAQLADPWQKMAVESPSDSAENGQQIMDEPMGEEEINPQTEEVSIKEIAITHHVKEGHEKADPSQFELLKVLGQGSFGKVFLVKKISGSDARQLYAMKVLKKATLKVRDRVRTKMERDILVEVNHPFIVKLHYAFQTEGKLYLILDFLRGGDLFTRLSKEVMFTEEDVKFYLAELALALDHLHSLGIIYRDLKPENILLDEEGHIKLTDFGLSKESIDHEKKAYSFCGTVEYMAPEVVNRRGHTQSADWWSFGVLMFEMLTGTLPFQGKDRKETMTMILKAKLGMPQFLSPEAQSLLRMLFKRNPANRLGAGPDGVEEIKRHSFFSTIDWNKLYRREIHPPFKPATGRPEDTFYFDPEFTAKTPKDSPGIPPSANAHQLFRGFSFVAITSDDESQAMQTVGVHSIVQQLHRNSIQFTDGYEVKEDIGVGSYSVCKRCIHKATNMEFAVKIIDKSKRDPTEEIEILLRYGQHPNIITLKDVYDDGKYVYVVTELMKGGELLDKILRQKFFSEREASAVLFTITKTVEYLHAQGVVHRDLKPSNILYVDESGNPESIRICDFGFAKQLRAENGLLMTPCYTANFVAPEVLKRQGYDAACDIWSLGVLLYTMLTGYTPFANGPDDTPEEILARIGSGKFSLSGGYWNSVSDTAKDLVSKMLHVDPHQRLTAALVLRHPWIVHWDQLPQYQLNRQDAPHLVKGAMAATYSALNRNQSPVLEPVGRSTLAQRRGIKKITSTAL

**Q.** Which results are given for `C=CC(=O)Nc1cccc(C(=O)Nc2ccc(Nc3cc(-c4[nH]c(SC)nc4C)ccn3)cc2)c1`?
**A.** % of control ([1]; at 1 µM): 95%; % of control ([1]; at 5 µM): 94%

**Q.** How did the % of inhibition [2] turn out when `Cn1cc(-n2cnc3c(NCc4nc5cc(Cl)c(Cl)cc5[nH]4)nc(N4CCOCC4)nc32)cn1` was run?
**A.** The % of inhibition was 15%.

**Q.** `CNC(=O)Nc1ccc(-c2nc(N3CC4CCC(C3)O4)c3cnn(C4CCC5(CC4)OCCO5)c3n2)cc1` was tested. Which % of control [3] did it give?
**A.** Its % of control is 52%.

**Q.** How did the % of control [4] turn out when `COc1cc(Nc2nc(C)cc(-c3cnn4nc(OC)ccc34)n2)cc(C(F)(F)F)c1` was run?
**A.** The % of control was 86%.

**Q.** With `C=CC(=O)Nc1cc(-n2c(=O)ccc3cnc4ccc(-c5ccc(NS(C)(=O)=O)cc5)cc4c32)ccc1C` as the compound, how does the % of control ([5]; at 1 µM) read?
**A.** Its % of control is 100%.

**Q.** And the % of control ([5]; at 10 µM)?
**A.** Its % of control is 50%.

**Q.** How did the % of control [6] turn out when `CN(C)C/C=C/C(=O)Nc1ccc(C(=O)N2CCCC(Nc3ncc(Cl)c(-c4c[nH]c5ccccc45)n3)C2)cc1` (stereo not given) was run?
**A.** The % of control was 87%.

**Q.** With `N#Cc1cccc(-c2c[nH]c3ncnc(N4CCOCC4)c23)c1` as the compound, how does the % of control [7] read?
**A.** The % of control was 65%.

**Q.** What about the % of inhibition [8] of the same compound?
**A.** The % of inhibition was -11%.
